# Columns and labels:
# Assay type in all cases: in vivo
# [1] = test system: redroot pigweed (Amaranthus retroflexus, AMR); experiment: Pre-emerge test, redroot pigweed; conditions: 250 g ai/ha, 14 days after application, rating scale 0-100 (0 no damage, 100 complete death)
# Outline: (§1)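 Greenhouse pre-emergence test in 10 cm pots of sandy loam soil mix; seeds sown one day before treatment. Compounds in acetone were track-sprayed at 187 l/ha, 8–1000 g ai/ha. Phytotoxicity rated 0–100 (0 = no damage, 100 = complete death) at 14 days after application.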
# [2] = test system: velvetleaf (Abutilon theophrasti, ABT); experiment: Pre-emerge test, velvetleaf; conditions: 250 g ai/ha, 14 days after application, rating scale 0-100 (0 no damage, 100 complete death)
# Outline: as §1
# [3] = test system: sicklepod (Cassia obtusifolia, CAO); experiment: Pre-emerge test, sicklepod; conditions: 250 g ai/ha, 14 days after application, rating scale 0-100 (0 no damage, 100 complete death)
# Outline: as §1
# [4] = test system: ivyleaf morningglory (Ipomoea hederacea, IPH); experiment: Pre-emerge test, ivyleaf morningglory; conditions: 250 g ai/ha, 14 days after application, rating scale 0-100 (0 no damage, 100 complete death)
# Outline: as §1
# [5] = test system: lambsquarters (Chenopodium album, CHA); experiment: Pre-emerge test, lambsquarters; conditions: 250 g ai/ha, 14 days after application, rating scale 0-100 (0 no damage, 100 complete death)
# Outline: as §1
# [6] = test system: common ragweed (Ambrosia artemisiifolia L., AML); experiment: Pre-emerge test, common ragweed; conditions: 250 g ai/ha, 14 days after application, rating scale 0-100 (0 no damage, 100 complete death)
# Outline: as §1
# [7] = test system: cocklebur (Xanthium strumariunt, XAS); experiment: Pre-emerge test, cocklebur; conditions: 250 g ai/ha, 14 days after application, rating scale 0-100 (0 no damage, 100 complete death)
# Outline: as §1
# [8] = test system: green foxtail (Setaria viridis, SEV); experiment: Pre-emerge test, green foxtail; conditions: 250 g ai/ha, 14 days after application, rating scale 0-100 (0 no damage, 100 complete death)
# Outline: as §1
# [9] = test system: barnyardgrass (Echinachloa crus-galli, ECC); experiment: Pre-emerge test, barnyardgrass; conditions: 250 g ai/ha, 14 days after application, rating scale 0-100 (0 no damage, 100 complete death)
# Outline: as §1
# [10] = test system: johnsongrass (Sorghum halepense, SOH); experiment: Pre-emerge test, johnsongrass; conditions: 250 g ai/ha, 14 days after application, rating scale 0-100 (0 no damage, 100 complete death)
# Outline: as §1
# [11] = test system: large crabgrass (Digitaria sanguinalis, DIS); experiment: Pre-emerge test, large crabgrass; conditions: 250 g ai/ha, 14 days after application, rating scale 0-100 (0 no damage, 100 complete death)
# Outline: as §1
# [12] = test system: field corn (Zea mays L., var. Dekalb 535, CORN); experiment: Pre-emerge test, crop damage field corn; conditions: pre-emerge, 250 g ai/ha, 14 days after application, rating scale 0-100 (0 no damage, 100 complete death)
# Outline: (§2)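 Efficacy values are 0–100 phytotoxicity scores (0 no damage, 100 complete death) recorded 14 days post-application. Spray was delivered pre-emergence at 187 l/ha with rates of 8–1000 g ai/ha, using acetone as solvent.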
# [13] = test system: soybean (Glycine max L., var. Pella 86, SOY); experiment: Pre-emerge test, crop damage soybean; conditions: pre-emerge, 250 g ai/ha, 14 days after application, rating scale 0-100 (0 no damage, 100 complete death)
# Outline: as §2
# [14] = test system: upland rice (Oryza sp., var.Tebonnet, RICE); experiment: Pre-emerge test, crop damage upland rice; conditions: pre-emerge, 250 g ai/ha, 14 days after application, rating scale 0-100 (0 no damage, 100 complete death)
# Outline: as §2
# [15] = test system: wheat (Triticum aestivum); experiment: Pre-emerge test, crop damage wheat; conditions: pre-emerge, 250 g ai/ha, 14 days after application, rating scale 0-100 (0 no damage, 100 complete death)
# Outline: as §2
# [16] = test system: redroot pigweed (Amaranthus retroflexus, AMR); experiment: Post-emerge test, redroot pigweed; conditions: 250 g ai/ha, 14 days after application, rating scale 0-100 (0 no damage, 100 complete death)
# Outline: (§3)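 Values are visual phytotoxicity ratings on a 0-100 scale taken 14 days after application, where 0 means no damage and 100 complete death. Compounds in acetone with 0.25% v/v non-ionic surfactant were track-sprayed at 187 l/ha, 8-1000 g ai/ha, onto plants at the 2-3 leaf stage.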
# [17] = test system: velvetleaf (Abutilon theophrasti, ABT); experiment: Post-emerge test, velvetleaf; conditions: 250 g ai/ha, 14 days after application, rating scale 0-100 (0 no damage, 100 complete death)
# Outline: as §3
# [18] = test system: sicklepod (Cassia obtusifolia, CAO); experiment: Post-emerge test, sicklepod; conditions: 250 g ai/ha, 14 days after application, rating scale 0-100 (0 no damage, 100 complete death)
# Outline: as §3
# [19] = test system: ivyleaf morningglory (Ipomoea hederacea, IPH); experiment: Post-emerge test, ivyleaf morningglory; conditions: 250 g ai/ha, 14 days after application, rating scale 0-100 (0 no damage, 100 complete death)
# Outline: as §3
# [20] = test system: lambsquarters (Chenopodium album, CHA); experiment: Post-emerge test, lambsquarters; conditions: 250 g ai/ha, 14 days after application, rating scale 0-100 (0 no damage, 100 complete death)
# Outline: as §3
# [21] = test system: common ragweed (Ambrosia artemisiifolia L., AML); experiment: Post-emerge test, common ragweed; conditions: 250 g ai/ha, 14 days after application, rating scale 0-100 (0 no damage, 100 complete death)
# Outline: as §3
# [22] = test system: cocklebur (Xanthium strumariunt, XAS); experiment: Post-emerge test, cocklebur; conditions: 250 g ai/ha, 14 days after application, rating scale 0-100 (0 no damage, 100 complete death)
# Outline: as §3
# [23] = test system: green foxtail (Setaria viridis, SEV); experiment: Post-emerge test, green foxtail; conditions: 250 g ai/ha, 14 days after application, rating scale 0-100 (0 no damage, 100 complete death)
# Outline: as §3
# [24] = test system: barnyardgrass (Echinachloa crus-galli, ECC); experiment: Post-emerge test, barnyardgrass; conditions: 250 g ai/ha, 14 days after application, rating scale 0-100 (0 no damage, 100 complete death)
# Outline: as §3
# [25] = test system: johnsongrass (Sorghum halepense, SOH); experiment: Post-emerge test, johnsongrass; conditions: 250 g ai/ha, 14 days after application, rating scale 0-100 (0 no damage, 100 complete death)
# Outline: as §3
# [26] = test system: large crabgrass (Digitaria sanguinalis, DIS); experiment: Post-emerge test, large crabgrass; conditions: 250 g ai/ha, 14 days after application, rating scale 0-100 (0 no damage, 100 complete death)
# Outline: as §3
# [27] = test system: field corn (Zea mays L., var. Dekalb 535, CORN); experiment: Post-emerge test, crop damage field corn; conditions: post-emerge, 250 g ai/ha, 14 days after application, rating scale 0-100 (0 no damage, 100 complete death)
# Outline: as §3
# [28] = test system: soybean (Glycine max L., var. Pella 86, SOY); experiment: Post-emerge test, crop damage soybean; conditions: post-emerge, 250 g ai/ha, 14 days after application, rating scale 0-100 (0 no damage, 100 complete death)
# Outline: as §3
# [29] = test system: upland rice (Oryza sp., var.Tebonnet, RICE); experiment: Post-emerge test, crop damage upland rice; conditions: post-emerge, 250 g ai/ha, 14 days after application, rating scale 0-100 (0 no damage, 100 complete death)
# Outline: as §3
# [30] = test system: wheat (Triticum aestivum); experiment: Post-emerge test, crop damage wheat; conditions: post-emerge, 250 g ai/ha, 14 days after application, rating scale 0-100 (0 no damage, 100 complete death)
# Outline: as §3
Compound,Pre-emerge Herbicidal Activity AMR (phytotoxicity rating) [1],Pre-emerge Herbicidal Activity ABT (phytotoxicity rating) [2],Pre-emerge Herbicidal Activity CAO (phytotoxicity rating) [3],Pre-emerge Herbicidal Activity IPH (phytotoxicity rating) [4],Pre-emerge Herbicidal Activity CHA (phytotoxicity rating) [5],Pre-emerge Herbicidal Activity AML (phytotoxicity rating) [6],Pre-emerge Herbicidal Activity XAS (phytotoxicity rating) [7],Pre-emerge Herbicidal Activity SEV (phytotoxicity rating) [8],Pre-emerge Herbicidal Activity ECC (phytotoxicity rating) [9],Pre-emerge Herbicidal Activity SOH (phytotoxicity rating) [10],Pre-emerge Herbicidal Activity DIS (phytotoxicity rating) [11],Pre-emerge crop damage CORN (phytotoxicity rating) [12],Pre-emerge crop damage SOY (phytotoxicity rating) [13],Pre-emerge crop damage RICE (phytotoxicity rating) [14],Pre-emerge crop damage WHEAT (phytotoxicity rating) [15],Post-emerge Herbicidal Activity AMR (phytotoxicity rating) [16],Post-emerge Herbicidal Activity ABT (phytotoxicity rating) [17],Post-emerge Herbicidal Activity CAO (phytotoxicity rating) [18],Post-emerge Herbicidal Activity IPH (phytotoxicity rating) [19],Post-emerge Herbicidal Activity CHA (phytotoxicity rating) [20],other results
O=C1CN2C(=O)COc3cc(F)c(-c4ncc(C(F)(F)F)cc4Cl)c(c32)N1 [1-63],100,100,99,100,100,100,100,100,100,100,100,100,50,100,90,100,100,50,100,100,Post-emerge Herbicidal Activity AML (phytotoxicity rating) [21]: 45; Post-emerge Herbicidal Activity XAS (phytotoxicity rating) [22]: 100; Post-emerge Herbicidal Activity SEV (phytotoxicity rating) [23]: 100; Post-emerge Herbicidal Activity ECC (phytotoxicity rating) [24]: 100; Post-emerge Herbicidal Activity SOH (phytotoxicity rating) [25]: 99; Post-emerge Herbicidal Activity DIS (phytotoxicity rating) [26]: 80; Post-emerge crop damage CORN (phytotoxicity rating) [27]: 20; Post-emerge crop damage SOY (phytotoxicity rating) [28]: 100; Post-emerge crop damage RICE (phytotoxicity rating) [29]: 75; Post-emerge crop damage WHEAT (phytotoxicity rating) [30]: 30
CC1C(=O)Nc2c(-c3ncc(C(F)(F)F)cc3Cl)c(F)cc3c2N1C(=O)CO3 (stereo not drawn) [1-64],100,100,100,100,100,100,100,100,100,100,100,100,99,95,90,100,100,85,100,100,Post-emerge Herbicidal Activity AML (phytotoxicity rating) [21]: 95; Post-emerge Herbicidal Activity XAS (phytotoxicity rating) [22]: 100; Post-emerge Herbicidal Activity SEV (phytotoxicity rating) [23]: 100; Post-emerge Herbicidal Activity ECC (phytotoxicity rating) [24]: 100; Post-emerge Herbicidal Activity SOH (phytotoxicity rating) [25]: 85; Post-emerge Herbicidal Activity DIS (phytotoxicity rating) [26]: 40; Post-emerge crop damage CORN (phytotoxicity rating) [27]: 5; Post-emerge crop damage SOY (phytotoxicity rating) [28]: 100; Post-emerge crop damage RICE (phytotoxicity rating) [29]: 0; Post-emerge crop damage WHEAT (phytotoxicity rating) [30]: 15
CCC1C(=O)Nc2c(-c3ncc(C(F)(F)F)cc3Cl)c(F)cc3c2N1C(=O)CO3 (stereo not drawn) [1-66],100,100,98,100,100,100,50,100,100,100,100,95,35,85,50,100,100,75,100,100,Post-emerge Herbicidal Activity AML (phytotoxicity rating) [21]: 80; Post-emerge Herbicidal Activity XAS (phytotoxicity rating) [22]: 100; Post-emerge Herbicidal Activity SEV (phytotoxicity rating) [23]: 98; Post-emerge Herbicidal Activity ECC (phytotoxicity rating) [24]: 100; Post-emerge Herbicidal Activity SOH (phytotoxicity rating) [25]: 75; Post-emerge Herbicidal Activity DIS (phytotoxicity rating) [26]: 95; Post-emerge crop damage CORN (phytotoxicity rating) [27]: 10; Post-emerge crop damage SOY (phytotoxicity rating) [28]: 100; Post-emerge crop damage RICE (phytotoxicity rating) [29]: 100; Post-emerge crop damage WHEAT (phytotoxicity rating) [30]: 30
O=C1Nc2c(-c3ncc(C(F)(F)F)cc3Cl)c(F)cc3c2N(C(=O)CO3)C1c1ccccc1 (stereo not drawn) [1-68],100,99,40,40,100,65,30,100,98,99,100,5,5,0,30,100,80,0,60,100,Post-emerge Herbicidal Activity AML (phytotoxicity rating) [21]: 40; Post-emerge Herbicidal Activity XAS (phytotoxicity rating) [22]: 60; Post-emerge Herbicidal Activity SEV (phytotoxicity rating) [23]: 0; Post-emerge Herbicidal Activity ECC (phytotoxicity rating) [24]: 0; Post-emerge Herbicidal Activity SOH (phytotoxicity rating) [25]: 0; Post-emerge Herbicidal Activity DIS (phytotoxicity rating) [26]: 0; Post-emerge crop damage CORN (phytotoxicity rating) [27]: 10; Post-emerge crop damage SOY (phytotoxicity rating) [28]: 10; Post-emerge crop damage RICE (phytotoxicity rating) [29]: 0; Post-emerge crop damage WHEAT (phytotoxicity rating) [30]: 0

# Source: US6770596B1, “Fused tricyclic compounds, process for their preparation, and herbicidal compositions containing them” (Ishihara Sangyo Kaisha Ltd., priority 2002, dated 2004)
